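Tested at 5 concentrations; 48 h exposure; 96-well plates; endpoints linearly interpolated, else capped at highest concentration. At the TGI there is no net growth.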
Columns and labels:
Experiment in all cases: growth of human tumour cells (NCI), 48 h
HT29 colon = tested on: HT29 colon
ACHN renal = tested on: ACHN renal
NCI-H460 lung = tested on: NCI-H460 lung
SK-MEL-28 melanoma = tested on: SK-MEL-28 melanoma
UACC-257 melanoma = tested on: UACC-257 melanoma
UO-31 renal = tested on: UO-31 renal
KM12 colon = tested on: KM12 colon
SF-539 CNS = tested on: SF-539 CNS
HCT-116 colon = tested on: HCT-116 colon
MALME-3M melanoma = tested on: MALME-3M melanoma
CAKI-1 renal = tested on: CAKI-1 renal
SK-MEL-5 melanoma = tested on: SK-MEL-5 melanoma
A549 NSCLC = tested on: A549 NSCLC
LOX IMVI melanoma = tested on: LOX IMVI melanoma
M14 melanoma = tested on: M14 melanoma
HCC-2998 colon = tested on: HCC-2998 colon
U251 CNS = tested on: U251 CNS
PC-3 prostate = tested on: PC-3 prostate
HOP-62 NSCLC = tested on: HOP-62 NSCLC
MCF7 breast = tested on: MCF7 breast
HS 578T breast = tested on: HS 578T breast
IGROV1 ovarian = tested on: IGROV1 ovarian
SNB-19 CNS = tested on: SNB-19 CNS
NCI-H23 lung = tested on: NCI-H23 lung
SK-MEL-2 melanoma = tested on: SK-MEL-2 melanoma
MDA-MB-435 = tested on: MDA-MB-435
RPMI-8226 leukemia = tested on: RPMI-8226 leukemia
TK-10 renal = tested on: TK-10 renal
SNB-75 CNS = tested on: SNB-75 CNS
CCRF-CEM leukemia = tested on: CCRF-CEM leukemia
RXF 393 renal = tested on: RXF 393 renal
T-47D breast = tested on: T-47D breast
COLO 205 colon = tested on: COLO 205 colon
DU-145 prostate = tested on: DU-145 prostate
HCT-15 colon = tested on: HCT-15 colon
OVCAR-5 ovarian = tested on: OVCAR-5 ovarian
BT-549 breast = tested on: BT-549 breast
OVCAR-3 ovarian = tested on: OVCAR-3 ovarian
MDA-N = tested on: MDA-N
SF-268 CNS = tested on: SF-268 CNS
SF-295 CNS = tested on: SF-295 CNS
UACC-62 melanoma = tested on: UACC-62 melanoma
OVCAR-8 ovarian = tested on: OVCAR-8 ovarian
HL-60(TB) leukemia = tested on: HL-60(TB) leukemia
OVCAR-4 ovarian = tested on: OVCAR-4 ovarian
SK-OV-3 ovarian = tested on: SK-OV-3 ovarian
MDA-MB-231 breast = tested on: MDA-MB-231 breast
A498 renal = tested on: A498 renal
K-562 leukemia = tested on: K-562 leukemia
HOP-92 NSCLC = tested on: HOP-92 NSCLC
SW-620 colon = tested on: SW-620 colon
NCI-H226 lung = tested on: NCI-H226 lung
SR leukemia = tested on: SR leukemia
786-0 renal = tested on: 786-0 renal
NCI-H522 lung = tested on: NCI-H522 lung
MOLT-4 leukemia = tested on: MOLT-4 leukemia
NCI/ADR-RES ovarian = tested on: NCI/ADR-RES ovarian
EKVX NSCLC = tested on: EKVX NSCLC
SN12C renal = tested on: SN12C renal

CN1CCC(CN2c3ccccc3Sc3ccccc32)C1 (stereo not drawn)
TGI (HT29 colon): 23.8 µM
TGI (ACHN renal): 27.9 µM
TGI (NCI-H460 lung): 28.2 µM
TGI (SK-MEL-28 melanoma): 19.4 µM
TGI (UACC-257 melanoma): 24.4 µM
TGI (UO-31 renal): 30 µM
TGI (KM12 colon): 34.5 µM
TGI (SF-539 CNS): 31.9 µM
TGI (HCT-116 colon): 26.9 µM
TGI (MALME-3M melanoma): 31.7 µM
TGI (CAKI-1 renal): 28.8 µM
TGI (SK-MEL-5 melanoma): 27.7 µM
TGI (A549 NSCLC): 32.2 µM
TGI (LOX IMVI melanoma): 30 µM
TGI (M14 melanoma): 23.5 µM
TGI (HCC-2998 colon): 24.7 µM
TGI (U251 CNS): 26.6 µM
TGI (PC-3 prostate): 25.4 µM
TGI (HOP-62 NSCLC): 28.5 µM
TGI (MCF7 breast): 35 µM
TGI (HS 578T breast): 36.7 µM
TGI (IGROV1 ovarian): 31.6 µM
TGI (SNB-19 CNS): 33.1 µM
TGI (NCI-H23 lung): 36 µM
TGI (SK-MEL-2 melanoma): 30.6 µM
TGI (MDA-MB-435): 23.7 µM
TGI (RPMI-8226 leukemia): 33.8 µM
TGI (TK-10 renal): 31.4 µM
TGI (SNB-75 CNS): 11.1 µM
TGI (CCRF-CEM leukemia): 31.6 µM
TGI (RXF 393 renal): 17.4 µM
TGI (T-47D breast): 34.2 µM
TGI (COLO 205 colon): 25.2 µM
TGI (DU-145 prostate): 38.1 µM
TGI (HCT-15 colon): 31.4 µM
TGI (OVCAR-5 ovarian): 31.8 µM
TGI (BT-549 breast): 30.8 µM
TGI (OVCAR-3 ovarian): 28.6 µM
TGI (MDA-N): 27.7 µM
TGI (SF-268 CNS): 29.5 µM
TGI (SF-295 CNS): 29.8 µM
TGI (UACC-62 melanoma): 25.9 µM
TGI (OVCAR-8 ovarian): 31.9 µM
TGI (HL-60(TB) leukemia): 29.7 µM
TGI (OVCAR-4 ovarian): 28.1 µM
TGI (SK-OV-3 ovarian): 31.6 µM
TGI (MDA-MB-231 breast): 27.4 µM
TGI (A498 renal): 26.2 µM
TGI (K-562 leukemia): 27.4 µM
TGI (HOP-92 NSCLC): 29.5 µM
TGI (SW-620 colon): 35.7 µM
TGI (NCI-H226 lung): 35 µM
TGI (SR leukemia): 29.6 µM
TGI (786-0 renal): 27.9 µM
TGI (NCI-H522 lung): 32 µM
TGI (MOLT-4 leukemia): 38.7 µM
TGI (NCI/ADR-RES ovarian): 29.8 µM
TGI (EKVX NSCLC): 31.5 µM
TGI (SN12C renal): 29.1 µM

NC(N)=N/N=C(\c1ccc(F)cc1)c1ccc(C(F)(F)F)cc1
TGI (HT29 colon): 4.98 µM
TGI (ACHN renal): 10.1 µM
TGI (NCI-H460 lung): 2.09 µM
TGI (SK-MEL-28 melanoma): 8 µM
TGI (UACC-257 melanoma): 4.63 µM
TGI (UO-31 renal): 4.13 µM
TGI (KM12 colon): 2.04 µM
TGI (SF-539 CNS): 0.749 µM
TGI (HCT-116 colon): 1.28 µM
TGI (MALME-3M melanoma): 2.53 µM
TGI (CAKI-1 renal): 4.98 µM
TGI (SK-MEL-5 melanoma): 3.67 µM
TGI (A549 NSCLC): 4.96 µM
TGI (LOX IMVI melanoma): 1.64 µM
TGI (M14 melanoma): 1.35 µM
TGI (HCC-2998 colon): 1.75 µM
TGI (U251 CNS): 4.72 µM
TGI (PC-3 prostate): 5.51 µM
TGI (HOP-62 NSCLC): 0.955 µM
TGI (MCF7 breast): 2.15 µM
TGI (HS 578T breast): 1.85 µM
TGI (IGROV1 ovarian): 1.49 µM
TGI (SNB-19 CNS): 14.3 µM
TGI (NCI-H23 lung): 7.29 µM
TGI (SK-MEL-2 melanoma): 4.06 µM
TGI (MDA-MB-435): 0.298 µM
TGI (RPMI-8226 leukemia): 2.21 µM
TGI (TK-10 renal): 13.6 µM
TGI (SNB-75 CNS): 7.77 µM
TGI (CCRF-CEM leukemia): 5.43 µM
TGI (RXF 393 renal): 0.633 µM
TGI (T-47D breast): 5.82 µM
TGI (COLO 205 colon): 0.877 µM
TGI (DU-145 prostate): 7.76 µM
TGI (HCT-15 colon): 7.45 µM
TGI (OVCAR-5 ovarian): 9.74 µM
TGI (BT-549 breast): 4.02 µM
TGI (OVCAR-3 ovarian): 1.59 µM
TGI (MDA-N): 0.494 µM
TGI (SF-268 CNS): 9.96 µM
TGI (SF-295 CNS): 0.817 µM
TGI (UACC-62 melanoma): 1.55 µM
TGI (OVCAR-8 ovarian): 3.09 µM
TGI (HL-60(TB) leukemia): 0.762 µM
TGI (OVCAR-4 ovarian): 15.9 µM
TGI (SK-OV-3 ovarian): 4.94 µM
TGI (MDA-MB-231 breast): 1.15 µM
TGI (A498 renal): 0.333 µM
TGI (K-562 leukemia): 2.08 µM
TGI (HOP-92 NSCLC): 8.59 µM
TGI (SW-620 colon): 2.04 µM
TGI (NCI-H226 lung): 0.783 µM
TGI (SR leukemia): 1.47 µM
TGI (786-0 renal): 1.59 µM
TGI (NCI-H522 lung): 0.525 µM
TGI (MOLT-4 leukemia): 1.44 µM
TGI (NCI/ADR-RES ovarian): 4.35 µM
TGI (EKVX NSCLC): 11.3 µM
TGI (SN12C renal): 9.05 µM

Source: PubChem BioAssay (NCI)
